Assay [1] concerns Bacillus subtilis CJKB0001 (KCCM-10445). Briefly: Evaluation of resistance against thiaproline (growth on thiaproline-containing minimal medium). The class given is cell-based. Set-up: key: +: growth; −: not growth. As to conditions: 37° C., 5 days. The method, then: (§1) The Bacillus subtilis AS5 as the parent strain was obtained from BIONOM-S, Ltd. (Obolensk, Moscow, Russia). The Bacillus subtilis AS5 was suspended in phosphate buffer at pH 7.0 or citrate buffer at pH 5.5 to have a cell density of 10^7 to 10^8 cells/ml. A mutation-inducing agent, N-methyl-N′-nitro-N-nitrosoguanidine was added to the suspension until its concentration was 10 to 50 μg/ml. The resultant mixture was incubated at room temperature or 30° C. for 30 to 60 minutes to induce mutation. Then, the mixture was washed three times with 0.85% of saline solution and diluted in an appropriate manner. The diluted solution was plated onto 1.8% agar-containing minimal media with various concentrations of thiaproline and cultured at 37° C. for 5 days to obtain colonies. In this case, the concentration of thiaproline ranged from 0 mg/l to 100 mg/l. The formed colonies were inoculated onto nutrient agar media and cultured at 37° C. for 24 hours. Then, the resultant nutrient cultures were inoculated onto fermentation media and cultured at 37° C. for 4 to 5 days. The highest riboflavin-producing strain was selected.
In this example, in order to evaluate resistance to thiaproline, the Bacillus subtilis CJKB0001 (KCCM-10445) of Example 1 and the Bacillus subtilis AS5 as the parent strain were cultured in various concentrations of thiaproline-containing media. […]

The subject of a further assay is Bacillus subtilis AS5. The assay is described as above. The class given is cell-based. Set-up: key to growth of strain: +: growth; −: not growth. The note with it: 37° C., 5 days. The method, then: as §1
In this example, in order to evaluate resistance to thiaproline, the Bacillus subtilis CJKB0001 (KCCM-10445) of Example 1 and the Bacillus subtilis AS5 as the parent strain were cultured in various concentrations of thiaproline-containing media. In detail, respective strains were inoculated onto thiaproline-containing media as shown in Table 1 and cultured at 37° C. for 5 days. In this case, the concentration of thiaproline ranged from 0 to 100 mg/l.

The source of these data is patent publication US7166456B2, “Microorganism for producing riboflavin and method for producing riboflavin using the same” (CJ Corp., priority 2002, dated 2007).

Consider `O=C(O)[C@@H]1CSCN1` [thiaproline], for which the growth of strain entry in assay [1] (70 mg/l thiaproline) was “+”; in assay [1] (100 mg/l thiaproline), “−”; with Bacillus subtilis AS5 (40 mg/l thiaproline), “+”; in the assay on Bacillus subtilis AS5 (50 mg/l thiaproline), “−”; in the assay with Bacillus subtilis AS5 (70 mg/l thiaproline) it was “−”; with Bacillus subtilis AS5 (100 mg/l thiaproline) it was “−”. Moreover, the “thiaproline concentration at which the strain cannot grow” value in the assay with Bacillus subtilis AS5 (thiaproline-containing medium) is listed as “more than 40 mg/l”.
